Results as given in patent US20240148714A1, “Triple Negative Breast Cancer Treatment Method” (Exelixis, Inc., priority 2016, published 2024).
“Also recorded” adds a separate entry of the source.

Tested on: circulating mononuclear cells
Assay: Circulating cell biomarkers by flow cytometry in serial blood samples
Assay type: in vivo, human
Method: Experimental design: In this single-arm, two-stage phase 2 study, patients with metastatic TNBC with measurable disease by RECIST and up to 3 lines of prior chemotherapy for metastatic disease received cabozantinib 60 mg daily on a 21-day cycle. Patients were restaged 6 weeks following treatment initiation and every 9 weeks thereafter. The primary endpoint was objective response rate (ORR). Predefined secondary endpoints included progression free survival (PFS) and toxicity. Here, we examined cellular biomarkers using flow cytometry in serial blood samples collected at days 0 (baseline/pre-treatment), 8, 22, 43, and 64 of cabozantinib treatment. Mixed effect models were used to evaluate the changes of biomarker levels over time from baseline to day 64. Wilcoxon signed rank test were used to evaluate whether the change of biomarker levels from baseline to day 8 were different by clinical benefit. Adjusted p-values controlling false discovery rate were used to adjust for multiple comparisons.
The primary endpoint was the activity of cabozantinib, as defined by objective response rate (ORR) in patients with mTNBC. Predefined secondary endpoints included progression-free survival (PFS), toxicity, and pain. Correlative studies included analysis of MET and phospho-MET expression in archival tumor tissue, and molecular and cellular biomarkers of cabozantinib. Cellular biomarkers were examined using flow cytometry in serial blood samples collected at days 0 (baseline/pre-treatment), 8, 22, 43, and 64 of cabozantinib treatment. Mixed effect models were used to evaluate the changes of biomarker levels over time from baseline to day 64. Wilcoxon signed rank test were used to evaluate whether the change of biomarker levels from baseline to day 8 were different by clinical benefit. Adjusted p-values controlling false discovery rate were used to adjust for multiple comparisons.
Circulating Biomarker Assays: Potential biomarkers of cabozantinib activity were identified by measuring plasma proteins at baseline, on day 8 of therapy, on day 1 of each cycle of therapy, and, if available, at the time of progression. Eight milliliters of blood was collected in purple top (plasma EDTA) vacutainers and shipped on wet ice to a Clinical Laboratory Improvement Amendments-certified core in the Steele Laboratories (Massachusetts General Hospital), where whole blood was separated by centrifugation into cellular fraction and plasma. The fraction of stem/progenitor cell, lymphocyte, and myeloid populations of total circulating mononuclear cells were counted by flow cytometry using a LSR-II cytometer and FACSDiva software in fresh blood samples using the following markers: CD3, CD4, CD8, CD14, CD25, CD34, CD45, CD56, CD127, and CD133 (Becton Dickinson, Franklin Lakes, NJ, www.bd.com). Plasma was prepared in the standard fashion and stored at −78° C. until collection and analysis of all samples. The biomarkers measured included VEGF, placental growth factor (PlGF), VEGF-C, VEGF-D, soluble VEGFR1 (sVEGFR1), basic fibroblast growth factor (bFGF), and sTie-2 (using a 7-plex Growth Factor array) and granulocyte-macrophage colony stimulating factor (GM-CSF), interferon gamma (IFN-g), tumor necrosis factor alpha (TNF-a), and interleukin-1beta (IL-1b), IL-2, IL-6, IL-8, IL-10, and IL-12 heterodimer p70 (using a 9-plex Inflammatory Factor array; both Meso Scale Discovery, Gaithersburg, MD, www.mesoscale.com); and HGF, sMET, carbonic anhydrase IX (CAIX), stromal cell-derived factor 1 a (SDF1a), and sVEGFR2 by single analyte enzyme-linked immunosorbent assay (R&D Systems, Minneapolis, MN, www.rndsystems.com).
Descriptive statistics were used to summarize biomarker values at protocol-specific time points. […] The Wilcoxon signed rank test assessed biomarker change from day 1 to 8. Mixed effects linear models assessed the change in biomarker values at days 1, 8, 22, 43, and 64; values beyond day 64 were not analyzed because of the small number of patients still on protocol. […]

[1] = after cabozantinib, baseline to day 64

## COc1cc2nccc(Oc3ccc(NC(=O)C4(C(=O)Nc5ccc(F)cc5)CC4)cc3)c2cc1OC [cabozantinib]
Day 1 (baseline)
  CD3+ (lymphocytes), Median: 34.73 % of WBC
  CD3 + CD8 − CD4 + CD25+, Median: 0.66 % of WBC
  CD3 + CD8 − CD4 + CD25−, Median: 11.41 % of WBC
  CD3 + CD8 − CD4+, Median: 0.15 % of WBC
  CD3 + CD56+ (NKT cells), Median: 0.77 % of WBC
  CD3 − CD56+ (NK cells), Median: 5.84 % of WBC
  CD14+ (monocytes), Median: 42.20 % of WBC
  CD34 + CD133+ cells, Median: 0.17 % of WBC
Day 8
  CD3+ (lymphocytes), Median: 24.06 % of WBC
  CD3 + CD8 − CD4 + CD25+, Median: 0.79 % of WBC
  CD3 + CD8 − CD4 + CD25−, Median: 14.18 % of WBC
  CD3 + CD8 − CD4+, Median: 0.17 % of WBC
  CD3 + CD56+ (NKT cells), Median: 0.85 % of WBC
  CD3 − CD56+ (NK cells), Median: 7.27 % of WBC
  CD14+ (monocytes), Median: 31.44 % of WBC
  CD34 + CD133+ cells, Median: 0.11 % of WBC
Day 22
  CD3+ (lymphocytes), Median: 33.56 % of WBC
  CD3 + CD8 − CD4 + CD25+, Median: 0.59 % of WBC
  CD3 + CD8 − CD4 + CD25−, Median: 16.41 % of WBC
  CD3 + CD8 − CD4+, Median: 0.18 % of WBC
  CD3 + CD56+ (NKT cells), Median: 0.54 % of WBC
  CD3 − CD56+ (NK cells), Median: 8.51 % of WBC
  CD14+ (monocytes), Median: 19.03 % of WBC
  CD34 + CD133+ cells, Median: 0.12 % of WBC
Day 43
  CD3+ (lymphocytes), Median: 32.79 % of WBC
  CD3 + CD8 − CD4 + CD25+, Median: 0.73 % of WBC
  CD3 + CD8 − CD4 + CD25−, Median: 17.71 % of WBC
  CD3 + CD8 − CD4+, Median: 0.19 % of WBC
  CD3 + CD56+ (NKT cells), Median: 1.02 % of WBC
  CD3 − CD56+ (NK cells), Median: 6.50 % of WBC
  CD14+ (monocytes), Median: 24.79 % of WBC
  CD34 + CD133+ cells, Median: 0.18 % of WBC
Day 64
  CD3+ (lymphocytes), Median: 30.99 % of WBC
  CD3 + CD8 − CD4 + CD25+, Median: 0.61 % of WBC
  CD3 + CD8 − CD4 + CD25−, Median: 15.29 % of WBC
  CD3 + CD8 − CD4+, Median: 0.19 % of WBC
  CD3 + CD56+ (NKT cells), Median: 0.98 % of WBC
  CD3 − CD56+ (NK cells), Median: 8.13 % of WBC
  CD14+ (monocytes), Median: 23.48 % of WBC
  CD34 + CD133+ cells, Median: 0.11 % of WBC
[1]
  change in CD4+ cells (CD3+CD4+CD8− T): trend for increase; also recorded: nonsignificant trend toward increase
  change in CD14+ monocytes: persistent decrease
  change in CD56+ NK cells (CD3−CD56+ NK lymphocytes): trend for increase; also recorded: nonsignificant trend toward increase
  change in circulating CD3+ cells: significant increase; also recorded: persistent increase
  change in circulating CD8+ T cells (CD3+CD4−CD8+ T lymphocytes): significant increase
Baseline to day 64
  change in fraction of CD3+CD56+ NKT cells: no significant changes
  change in fraction of CD4+CD25+ Tregs: no significant changes
  change in fraction of CD4+CD127+ memory T cells: no significant changes
  change in fraction of CD133+ progenitor/stem cells: no significant changes
Metastatic TNBC patients
  effect on circulating cell biomarkers (summary): systemic changes consistent with activation of the immune system
